Experimental data reported in publication PMC8145938, “Triphenilphosphonium Analogs of Chloramphenicol as Dual-Acting Antimicrobial and Antiproliferating Agents” (Antibiotics, 2021).

How the values were obtained:
B. subtilis cells = assay: membrane potential by DiS-C3-(5) fluorescence; format: cell-based, Bacillus subtilis
Excerpt: Thus, we further examined the effect of CAM-Cn-TPP on the bacterial membrane potential of B. subtilis. In particular, the membrane potential of B. subtilis can be estimated from the fluorescence of the potential-sensitive dye, DiS-C3-(5), by measuring the changing fluorescence. The potential-dependent accumulation of the dye inside the bacterial cell causes quenching and leads to a decrease in fluorescence. Under the influence of substances that reduce the membrane potential, the dye is released and the fluorescence increases. […] Therefore, the action of CAM-Cn-TPP may have a double effect on bacterial cells and be based on the depolarization of the bacterial membrane by analogy with the mechanism of action of Cn-TPP [17].
The membrane potential of B. subtilis was estimated by measuring the fluorescence of the potential-dependent probe, DiS-C3-(5). B. subtilis from the overnight culture were seeded into a fresh LB medium, followed by growth for […], until reaching the optical density of 0.8 at 600 nm. Then, the bacteria were diluted 20-fold in a buffer containing 100 mM of KCl and 10 mM of Tris, pH 7.4. The fluorescence was measured at 670 nm (excitation at 630 nm) using a Fluorat-02-Panorama fluorimeter.

[1] = tested on: MDA-MB-231 and BT-549 TNBC-sensitive and chemoresistant cells; assay: cancer cell proliferation / viability assay (MTT); format: cell-based; conditions: 3 days treatment
Excerpt: We recently provided in vivo [67] and in vitro [68] evidence that certain bactericidal antibiotics suppress tumor growth by inducing mitochondrial dysfunction. […] These cells differ from the corresponding parental cells and display a different response to the same microenvironmental stimuli, allowing them to reduce their proliferating rate and survive chemotherapeutic treatment. Here, we tested the abovementioned CAM-TPP derivatives on chemoresistant triple negative breast cancer (TNBC) cell models, as well as on corresponding CSC-like spheroid cells. We created several relevant models based on TNBC cell lines, particularly MDA-MB-231 and BT-549, to determine their resistance to cyclophosphamide. To create CSC-like cells, parental cells were resuspended in nonadherent conditions to form tumorspheres.
The MDA-MB-231 (RRID: CVCL_0062) and BT-549 (RRID: CVCL_1092) cell lines were purchased from ATCC and cultured in DMEM/F12 (Gibco, Life Technologies, 31330-038) supplemented with 10% FBS, 1% Pen-Strep, 1% Sodium Pyruvate, and 1% L-glutamine. Chemoresistant cell lines were established with continuous treatment for 6 months with the anticancer therapeutic agent, cyclophosphamide (Rcyclo), as previously described. These cell lines were authenticated using short tandem repeat (STR) profiling within the last three years. […] The relative numbers of tumourspheres per well were counted manually. […]
The survival assay was performed essentially as described earlier. […] The absorbance was measured at 570 nm in Bio Spec 1601, Shimadzu spectrometer. […] The results were expressed as the means ± SEM. The data were analyzed using the GraphPad Prism 7 PRIZM computer software under the license of the Statistical Department (Vall’ d Hebron Hospital, Barcelona, Spain).

[2] = tested on: Rabbit Reticulocyte Lysate; assay: inhibition of eukaryotic in vitro translation (firefly luciferase); format: biochemical; conditions: 30 µM compound
Description: The next step was to test the new CAM-Cn-TPP compounds for their ability to inhibit the synthesis of the firefly luciferase reporter in vitro in a cell-free transcription-translation system based on an E. coli S30 extract.
The inhibition of eukaryotic translation was measured in Rabbit Reticulocyte Lysate (Promega) according to the manufacturer’s protocol. The reactions were programmed with 100 ng of Fluc mRNA and were carried out in 5 μL aliquots at 37 °C for 30 min. The activity of the in vitro synthesized luciferase was assessed using 5 μL of the substrate from the Steady-Glo Luciferase Assay System (Promega).

[3] = tested on: CSC-like TNBC cells (MDA-MB-231 and BT-549, sensitive and chemoresistant); assay: tumoursphere formation and viability of CSC-like cells; format: cell-based; conditions: for survival of CSCs: CSCs from parental and resistant TNBC cell lines; for spheroid formation: non-adherent conditions, 5 days
Excerpt: Several TPP-containing compounds have been proposed for the elimination of CSCs by the Lisanti group. In the current work, we studied the effect of CAM-TPP derivatives on CSC-like TNBC cell models.
The MDA-MB-231 (RRID: CVCL_0062) and BT-549 (RRID: CVCL_1092) cell lines were purchased from ATCC and cultured in DMEM/F12 (Gibco, Life Technologies, 31330-038) supplemented with 10% FBS, 1% Pen-Strep, 1% Sodium Pyruvate, and 1% L-glutamine. Chemoresistant cell lines were established with continuous treatment for 6 months with the anticancer therapeutic agent, cyclophosphamide (Rcyclo), as previously described. These cell lines were authenticated using short tandem repeat (STR) profiling within the last three years. To obtain CSC-like cells, a single cell suspension was prepared using enzymatic disaggregation (1× Trypsin-EDTA, Gibco, 25300062), and the cells were plated at a density of 10.000–12.000 cells per ml in a Cancer Stem Cell medium (C-28070, PromoCell, Heidelberg, Germany) in poly-2-hydroxyethyl methacrylate (Poly-HEMA, Santa Cruz Biotechnology, Dallas, TX, USA, sc-253284)-coated plates. […] The cells were […] with corresponding compounds or DMSO (control), followed by the abovementioned procedure of tumoursphere formation. The relative numbers of tumourspheres per well were counted manually. The experiments were performed independently at least 2 times, with several replicates.
The survival assay was performed essentially as described earlier. In short, cells were seeded into a 96-well plate, followed by treatment with increasing concentrations of the corresponding CAM-TPP derivatives for 3 days. 3-(4,5-dimethylthiazol-2-yl)-2,5-diphenyltetrazolium bromide (0.5 mg/mL MTT; Sigma-Aldrich) dissolved in media was added to each well. Following incubation for 2 h, the supernatant was carefully removed from the wells, and 100 µL of a DMSO:ethanol mix (1:1) was added to each well, followed by shaking for 10 min. The absorbance was measured at 570 nm in Bio Spec 1601, Shimadzu spectrometer. The OD570 of the DMSO solution in each well was considered to be proportional to the number of cells. The OD570 of the control (treatment without supplement) was considered to be 100%. The results were expressed as the means ± SEM. The data were analyzed using the GraphPad Prism 7 PRIZM computer software under the license of the Statistical Department (Vall’ d Hebron Hospital, Barcelona, Spain).

| SMILES | effect on membrane potential (B. subtilis cells; 10 µM) | effect on membrane potential (B. subtilis cells; submicromolar concentrations) | effect on proliferation of TNBC cell lines [1] | effect on eukaryotic in vitro translation [2] | survival of CSCs [3] | spheroid formation [3] |
| --- | --- | --- | --- | --- | --- | --- |
| O=C(CCCCCCCCCC[P+](c1ccccc1)(c1ccccc1)c1ccccc1)N[C@H](CO)[C@H](O)c1ccc([N+](=O)[O-])cc1 [CAM-C10-TPP, (N-{[(1R,2R)-1,3-dihydroxy-1-(4-nitrophenyl)propan-2-yl]amino}-11-oxoundecyl)(triphenyl)phosphonium bromide] | caused a rapid drop in the membrane potential to the level observed with the channel-forming antibiotic gramicidin A | caused a decrease in the membrane potential of B. subtilis on a minute time scale | significantly reduced the proliferation of TNBC cell lines | had no effect on eukaryotic in vitro translation | reduced the survival of CSCs formed from parental and resistant TNBC cell lines | significant decrease in spheroid formation |
| O=C(CCCCCCCCCC[P+](c1ccccc1)(c1ccccc1)c1ccccc1)NCCCC(=O)N[C@H](CO)[C@H](O)c1ccc([N+](=O)[O-])cc1 [CAM-C14-TPP, N-[(1R,2R)-1,3-dihydroxy-1-(4-nitrophenyl)propan-2-yl]-4-(triphenyl)phosphoniumundecanamidobutamide bromide] | caused a rapid drop in the membrane potential to the level observed with the channel-forming antibiotic gramicidin A | caused a decrease in the membrane potential of B. subtilis on a minute time scale | significantly reduced the proliferation of TNBC cell lines | had no effect on eukaryotic in vitro translation | reduced the survival of CSCs formed from parental and resistant TNBC cell lines | significant decrease in spheroid formation |
